Patent US20130203789A1, “Novel Inhibitors of LYN Kinase and Methods Using Same” (VASSA INFORMATICS, priority 2012, published 2013)

Assays:
[1] = system: mesenchymal breast cancer lines; settings: at concentrations that inhibit LYN kinase activity; cited from earlier work
[2] = system: mesenchymal breast cancer lines; settings: at concentrations that inhibit LYN kinase activity; cited from earlier work; remark: listed apart in the source
LYN = settings: BT549 cells, Western blot; cited from earlier work
Lyn(h) = target: T1, Lyn(h) (Homo sapiens, UniProt P07948); experiment: Millipore kinase profiling, Lyn; assay type: biochemical; settings: 100 μM concentration
T1 construct: purchased Millipore (Dundee UK), contract testing service
Description: (§1) The three compounds identified in Example 1 were tested for kinase activity at Millipore (Dundee UK). The compounds were shipped as 10 mM stocks in DMSO as per Millipore testing standards. The testing consisted of two initial phases:
(§2) (a) Profiling against a set of approximately 60 kinases, selected as representative of all kinases and current kinase drug targets, to determine the selectivity of the compounds; and, (b) IC50 testing againstr EGFR, the kinase target of the initial search template molecule.

Pim-1(h) = target: T2, Pim-1(h) (Homo sapiens, UniProt P11309); experiment: Millipore kinase profiling, Pim-1; assay type: biochemical; settings: 100 μM concentration
T2 construct: purchased Millipore (Dundee UK), contract testing service
Description: as §1, §2

Abl kinase (BCR-Abl) = Abl kinase (BCR-Abl) (Homo sapiens, UniProt P00519); experiment: Kinase profiling, Abl; assay type: biochemical; settings: 100 μM concentration
Description: (§3) FIG. 9 is a schematic kinome tree illustrating the evolutionary relationships between 299 kinases. The inhibition of 68 representative kinases by VI301 at 100 μM concentration was evaluated.
as §1, §2

CamK1 = CamK1 (Homo sapiens, UniProt Q14012); experiment: Kinase profiling, CamK1; assay type: biochemical; settings: 100 μM concentration
Description: as §3, §1, §2

WNK3(h) = target: T3, WNK3(h) (Homo sapiens, UniProt Q9BYP7); experiment: Millipore kinase profiling, WNK3; assay type: biochemical; settings: 100 μM concentration
T3 construct: purchased Millipore (Dundee UK), contract testing service
Description: as §1, §2

T1 sequence (P07948 1-491 isoform P07948-2): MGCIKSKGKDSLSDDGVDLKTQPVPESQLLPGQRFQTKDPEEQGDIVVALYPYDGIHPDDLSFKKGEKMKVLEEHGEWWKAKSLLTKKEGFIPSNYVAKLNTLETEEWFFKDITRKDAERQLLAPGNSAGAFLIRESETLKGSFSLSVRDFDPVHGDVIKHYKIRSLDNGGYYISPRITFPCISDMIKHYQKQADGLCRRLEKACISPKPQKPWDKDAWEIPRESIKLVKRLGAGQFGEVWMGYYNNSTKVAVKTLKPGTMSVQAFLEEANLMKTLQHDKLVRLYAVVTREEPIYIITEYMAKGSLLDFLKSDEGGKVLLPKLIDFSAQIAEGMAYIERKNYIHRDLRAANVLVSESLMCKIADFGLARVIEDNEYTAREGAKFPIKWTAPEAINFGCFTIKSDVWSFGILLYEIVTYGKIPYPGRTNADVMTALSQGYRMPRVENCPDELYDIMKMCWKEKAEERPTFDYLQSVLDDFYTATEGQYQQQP
T3 sequence (Q9BYP7 whole entry): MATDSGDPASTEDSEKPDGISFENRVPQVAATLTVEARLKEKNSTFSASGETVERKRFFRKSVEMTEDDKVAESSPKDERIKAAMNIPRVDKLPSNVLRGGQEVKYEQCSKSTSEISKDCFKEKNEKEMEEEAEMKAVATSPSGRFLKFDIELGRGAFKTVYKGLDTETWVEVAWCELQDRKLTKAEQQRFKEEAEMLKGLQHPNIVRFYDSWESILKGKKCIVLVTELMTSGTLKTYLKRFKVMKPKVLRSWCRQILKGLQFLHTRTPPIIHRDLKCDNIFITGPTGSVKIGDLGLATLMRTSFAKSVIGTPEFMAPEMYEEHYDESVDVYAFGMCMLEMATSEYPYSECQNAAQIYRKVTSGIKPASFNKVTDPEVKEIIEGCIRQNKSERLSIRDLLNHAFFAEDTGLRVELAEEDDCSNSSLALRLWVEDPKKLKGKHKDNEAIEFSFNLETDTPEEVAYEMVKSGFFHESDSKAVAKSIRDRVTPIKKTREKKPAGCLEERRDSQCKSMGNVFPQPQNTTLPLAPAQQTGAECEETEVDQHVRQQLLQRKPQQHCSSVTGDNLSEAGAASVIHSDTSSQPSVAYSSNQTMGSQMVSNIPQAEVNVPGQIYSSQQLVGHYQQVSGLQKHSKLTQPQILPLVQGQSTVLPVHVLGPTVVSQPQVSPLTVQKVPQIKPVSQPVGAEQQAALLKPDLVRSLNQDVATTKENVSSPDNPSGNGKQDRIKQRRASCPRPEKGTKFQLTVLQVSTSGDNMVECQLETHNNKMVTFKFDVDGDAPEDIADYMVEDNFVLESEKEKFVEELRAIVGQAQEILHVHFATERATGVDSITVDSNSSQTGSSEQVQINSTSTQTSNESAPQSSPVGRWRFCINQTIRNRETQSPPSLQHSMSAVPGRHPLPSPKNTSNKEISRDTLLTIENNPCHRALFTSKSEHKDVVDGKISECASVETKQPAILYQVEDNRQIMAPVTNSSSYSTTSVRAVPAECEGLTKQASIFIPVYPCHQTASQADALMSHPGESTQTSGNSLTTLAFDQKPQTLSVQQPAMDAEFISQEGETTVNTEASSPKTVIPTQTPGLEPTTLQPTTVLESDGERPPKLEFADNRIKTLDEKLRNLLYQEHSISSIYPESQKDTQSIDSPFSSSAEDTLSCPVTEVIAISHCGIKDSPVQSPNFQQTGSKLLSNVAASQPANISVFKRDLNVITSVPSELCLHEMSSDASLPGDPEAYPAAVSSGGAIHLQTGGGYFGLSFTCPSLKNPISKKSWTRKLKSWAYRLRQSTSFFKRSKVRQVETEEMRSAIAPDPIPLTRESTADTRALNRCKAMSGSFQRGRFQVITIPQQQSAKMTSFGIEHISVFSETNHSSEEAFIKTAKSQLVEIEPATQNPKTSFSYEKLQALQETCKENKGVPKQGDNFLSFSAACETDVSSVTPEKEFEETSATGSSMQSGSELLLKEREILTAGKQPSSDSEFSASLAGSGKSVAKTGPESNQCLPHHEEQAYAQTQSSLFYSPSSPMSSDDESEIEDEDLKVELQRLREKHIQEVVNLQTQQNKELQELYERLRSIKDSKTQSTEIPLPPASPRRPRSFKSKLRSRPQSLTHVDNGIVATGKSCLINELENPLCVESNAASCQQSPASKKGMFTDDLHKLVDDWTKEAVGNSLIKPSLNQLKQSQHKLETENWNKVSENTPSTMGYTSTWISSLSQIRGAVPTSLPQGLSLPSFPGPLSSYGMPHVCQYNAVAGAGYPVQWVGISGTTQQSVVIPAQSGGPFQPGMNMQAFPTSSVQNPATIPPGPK
T2 sequence (P11309 whole entry): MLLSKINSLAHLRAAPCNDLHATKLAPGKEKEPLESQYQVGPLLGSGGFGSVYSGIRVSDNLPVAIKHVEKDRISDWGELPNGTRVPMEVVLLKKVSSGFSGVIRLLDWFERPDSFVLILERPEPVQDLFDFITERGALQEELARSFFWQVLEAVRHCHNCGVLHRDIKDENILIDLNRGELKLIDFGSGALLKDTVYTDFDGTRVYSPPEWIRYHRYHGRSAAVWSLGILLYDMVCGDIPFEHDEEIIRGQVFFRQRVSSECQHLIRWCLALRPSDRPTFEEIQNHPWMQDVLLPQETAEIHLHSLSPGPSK
Sequence of Abl kinase (BCR-Abl) (P00519 27-1130 limits assumed): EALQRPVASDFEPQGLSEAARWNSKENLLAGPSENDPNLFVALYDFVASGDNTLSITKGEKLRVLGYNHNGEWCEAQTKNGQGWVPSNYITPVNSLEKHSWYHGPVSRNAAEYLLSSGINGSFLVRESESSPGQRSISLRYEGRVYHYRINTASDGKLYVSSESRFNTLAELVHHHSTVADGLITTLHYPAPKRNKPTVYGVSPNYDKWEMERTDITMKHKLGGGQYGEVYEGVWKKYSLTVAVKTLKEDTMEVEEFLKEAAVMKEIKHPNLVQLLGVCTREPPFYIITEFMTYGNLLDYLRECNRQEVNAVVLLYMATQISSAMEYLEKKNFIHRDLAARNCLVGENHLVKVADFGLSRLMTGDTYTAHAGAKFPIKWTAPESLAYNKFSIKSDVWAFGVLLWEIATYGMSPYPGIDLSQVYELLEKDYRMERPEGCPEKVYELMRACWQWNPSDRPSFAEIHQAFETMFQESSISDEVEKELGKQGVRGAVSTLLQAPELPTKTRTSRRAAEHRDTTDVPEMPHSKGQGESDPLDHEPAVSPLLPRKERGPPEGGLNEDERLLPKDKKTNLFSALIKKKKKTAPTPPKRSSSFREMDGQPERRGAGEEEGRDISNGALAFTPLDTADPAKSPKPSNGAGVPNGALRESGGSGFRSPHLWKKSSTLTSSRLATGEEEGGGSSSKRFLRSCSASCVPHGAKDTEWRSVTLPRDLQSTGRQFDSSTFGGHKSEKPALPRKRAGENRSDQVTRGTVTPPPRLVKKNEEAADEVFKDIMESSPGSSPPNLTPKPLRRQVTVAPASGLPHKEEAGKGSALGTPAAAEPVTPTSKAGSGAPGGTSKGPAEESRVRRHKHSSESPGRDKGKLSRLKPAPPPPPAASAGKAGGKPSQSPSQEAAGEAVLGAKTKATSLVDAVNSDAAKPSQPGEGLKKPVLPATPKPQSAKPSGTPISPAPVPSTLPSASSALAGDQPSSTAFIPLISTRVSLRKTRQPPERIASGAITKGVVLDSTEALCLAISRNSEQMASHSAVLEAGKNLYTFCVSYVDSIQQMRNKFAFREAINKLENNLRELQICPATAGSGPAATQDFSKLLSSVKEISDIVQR

| inhibition at 100 µM (Lyn(h)) [%] | inhibition of LYN kinase (in words) (Lyn(h)) | inhibition at 100 µM (Pim-1(h)) [%] | inhibition at 100 µM (Abl kinase (BCR-Abl)) [%] | inhibition at 100 µM (CamK1) [%] | inhibition at 100 µM (WNK3(h)) [%] | SMILES | cell invasion [1] | cell proliferation [2] | phosphorylated (activated) LYN (LYN) |
| --- | --- | --- | --- | --- | --- | --- | --- | --- | --- |
| – | – | – | – | – | – | Cc1nc(Nc2ncc(C(=O)Nc3c(C)cccc3Cl)s2)cc(N2CCN(CCO)CC2)n1 [Dasatinib, N-(2-chloro-6-methylphenyl)-2-[[6-[4-(2-hydroxyethyl)-1-piperazinyl]-2-methyl-4-pyrimidinyl]amino]-5-thiazole carboxamide] | blocked invasion | not proliferation | decreased phosphorylated (activated) LYN |
| 95 | good inhibition | 12 | 106 | 26 | 3 | Cc1nn2c(ncc3c(=O)n(-c4ccccc4)ccc32)c1-c1ccccc1 [VI301, 2-methyl-3,7-diphenylpyrazolo[1,5-a]pyrido[3,4-e]pyrimidin-6(7H)-one] | – | – | – |
